Source: patent US11395857B2, “Radiolabeled melanocortin 1 receptor-specific alpha-melanocyte-stimulating hormone analogues for imaging or therapy” (PROVINCIAL HEALTH SERVICES AUTHORITY, priority 2018, dated 2022)
Read-outs that look alike come from different tables or passages of the source.

Tests used:
B16-F10 tumours = test: PET/CT imaging of B16-F10 tumour-bearing mice; assay type: in vivo, C57BL/6J mice
Experimental: PET imaging experiments were conducted using a preclinical micro PET/CT scanner (Siemens inveon). For static PET scan, each tumour bearing mouse was injected with 4-6 MBq of ^68Ga-labeled CCZ01099 via tail vein under anesthesia. After the injection, mice were allowed to recover and roam freely in their cages. At 1 or 2 h p.i., the mice were sedated again with 2% isoflurane inhalation and positioned in the scanner, and kept warm by a heating pad. A 10 min baseline CT scan using 60 kV X-rays at 500 μA was obtained for localization and attenuation correction after segmentation for reconstructing the PET images. A single 12 min static PET scan was acquired following the CT scan. The mice were euthanized using CO2 inhalation after imaging.

[1] = Biodistribution of 68Ga-labeled peptide in mice bearing B16F10 mouse melanoma; assay type: in vivo, C57BL/6J mice; conditions: iv, total radioactivity; for tissue uptake at 2 h: 2 h p.i. unblocked
Experimental: The B16-F10 melanoma cell line (Mus musculus) used in the tumor model was obtained commercially from ATTC (CRL-6475). Cells were cultured in Dulbecco's Modified Eagle's Medium (DMEM, StemCell Technologies) supplemented by 10% FBS, 100 U/mL penicillin and 100 μg/mL streptomycin at 37° C. in a humidified incubator containing 5% CO2. Cells grown to roughly 90% confluence were washed with sterile phosphate-buffered saline (lx PBS, pH 7.4), followed by trypsinization. For tumour implantation, C57BL/6J mice were anesthetized by inhalation with 2% isoflurane in 2.0 L/min of oxygen, 2×10^6 B16-F10 cells were inoculated subcutaneously on right dorsal flank. Mice were imaged or used in biodistribution studies once the tumour reached 6-8 mm in diameter.
Similar to PET/CT imaging, tumour-bearing mice were injected with 1-2 MBq of ^68Ga-labeled CCZ01099 via tail vein under anesthesia with or without co-injection of 0.5 mg of MC1R-specific inhibitor BMS 470539. At 1 or 2 h p.i., the mice were anesthetized again, and euthanized by CO2 inhalation. Blood was promptly withdrawn, and the organs of interest were harvested, rinsed with 1×PBS (pH 7.4), and blotted dry. Each organ was then weighed and the radioactivity of the collected tissue was measured using a Wallac WIZARD2 gamma counter (Perkin Elmer), normalized to the injected dose using a standard curve and expressed as the percentage of the injected dose per gram of tissue (% ID/g). Table 3 summarizes the biodistribution data of ^68Ga-labeled CCZ01099 at 1 and 2 h p.i., as well as 1 h p.i. with co-injection of 0.5 mg of MC1R-specific inhibitor BMS 470539. Minimal background tissue radioactivity accumulation was observed, except for kidney, which is expected as the radiolabeled peptides were cleared through the renal pathway.

Tumour visualization on PET images (B16-F10 tumours; 1 h and 2 h p.i.): Tumours were clearly visualized | Tumour uptake on PET with co-injection of MC1R-specific inhibitor BMS 470539 (B16-F10 tumours; 1 h p.i., 0.5 mg BMS 470539): tumour uptake was abolished | tissue uptake at 1 h ([1]; B16F10 tumour, 1 h p.i. unblocked, C57BL/6J mice, B16F10 melanoma, read-out: Biodistribution, B16F10 tumour): 6.12 ± 1.43 %ID/g | tissue uptake at 2 h ([1]; B16F10 tumour, C57BL/6J mice, B16F10 melanoma, read-out: Biodistribution, B16F10 tumour): 5.22 ± 1.3 %ID/g | tissue uptake at 1 h ([1]; C57BL/6J, B16F10 tumour, with BMS 470539 (MC1R-specific inhibitor), 0.5 mg co-injected, 1 h p.i. blocked, co-injection of 0.5 mg BMS 470539, read-out: Biodistribution, B16F10 tumour): 0.6 ± 0.15 %ID/g | tissue uptake at 1 h ([1]; C57BL/6J, adrenal glands, with BMS 470539 (MC1R-specific inhibitor), 0.5 mg co-injected, 1 h p.i. blocked, co-injection of 0.5 mg BMS 470539, read-out: Biodistribution, Adrenal glands): 0.45 ± 0.29 %ID/g | tissue uptake at 1 h ([1]; C57BL/6J, bone, with BMS 470539 (MC1R-specific inhibitor), 0.5 mg co-injected, 1 h p.i. blocked, co-injection of 0.5 mg BMS 470539, read-out: Biodistribution, Bone): 0.17 ± 0.1 %ID/g | tissue uptake at 1 h ([1]; C57BL/6J, brain, with BMS 470539 (MC1R-specific inhibitor), 0.5 mg co-injected, 1 h p.i. blocked, co-injection of 0.5 mg BMS 470539, read-out: Biodistribution, Brain): 0.03 ± 0.02 %ID/g | tissue uptake at 1 h ([1]; C57BL/6J, fat, with BMS 470539 (MC1R-specific inhibitor), 0.5 mg co-injected, 1 h p.i. blocked, co-injection of 0.5 mg BMS 470539, read-out: Biodistribution, Fat): 0.04 ± 0.02 %ID/g | tissue uptake at 1 h ([1]; C57BL/6J, heart, with BMS 470539 (MC1R-specific inhibitor), 0.5 mg co-injected, 1 h p.i. blocked, co-injection of 0.5 mg BMS 470539, read-out: Biodistribution, Heart): 0.13 ± 0.02 %ID/g | tissue uptake at 1 h ([1]; C57BL/6J, intestine, with BMS 470539 (MC1R-specific inhibitor), 0.5 mg co-injected, 1 h p.i. blocked, co-injection of 0.5 mg BMS 470539, read-out: Biodistribution, Intestine): 0.17 ± 0.05 %ID/g | tissue uptake at 1 h ([1]; C57BL/6J, kidneys, with BMS 470539 (MC1R-specific inhibitor), 0.5 mg co-injected, 1 h p.i. blocked, co-injection of 0.5 mg BMS 470539, read-out: Biodistribution, Kidneys): 2.62 ± 0.91 %ID/g | tissue uptake at 1 h ([1]; C57BL/6J, liver, with BMS 470539 (MC1R-specific inhibitor), 0.5 mg co-injected, 1 h p.i. blocked, co-injection of 0.5 mg BMS 470539, read-out: Biodistribution, Liver): 0.38 ± 0.11 %ID/g | tissue uptake at 1 h ([1]; C57BL/6J, lungs, with BMS 470539 (MC1R-specific inhibitor), 0.5 mg co-injected, 1 h p.i. blocked, co-injection of 0.5 mg BMS 470539, read-out: Biodistribution, Lungs): 0.34 ± 0.13 %ID/g | tissue uptake at 1 h ([1]; C57BL/6J, muscle, with BMS 470539 (MC1R-specific inhibitor), 0.5 mg co-injected, 1 h p.i. blocked, co-injection of 0.5 mg BMS 470539, read-out: Biodistribution, Muscle): 0.08 ± 0.03 %ID/g | tissue uptake at 1 h ([1]; C57BL/6J, pancreas, with BMS 470539 (MC1R-specific inhibitor), 0.5 mg co-injected, 1 h p.i. blocked, co-injection of 0.5 mg BMS 470539, read-out: Biodistribution, Pancreas): 0.08 ± 0.01 %ID/g | tissue uptake at 1 h ([1]; C57BL/6J, seminal glands, with BMS 470539 (MC1R-specific inhibitor), 0.5 mg co-injected, 1 h p.i. blocked, co-injection of 0.5 mg BMS 470539, read-out: Biodistribution, Seminal glands): 0.07 ± 0.03 %ID/g | tissue uptake at 1 h ([1]; C57BL/6J, spleen, with BMS 470539 (MC1R-specific inhibitor), 0.5 mg co-injected, 1 h p.i. blocked, co-injection of 0.5 mg BMS 470539, read-out: Biodistribution, Spleen): 0.52 ± 0.28 %ID/g | tissue uptake at 1 h ([1]; C57BL/6J, stomach, with BMS 470539 (MC1R-specific inhibitor), 0.5 mg co-injected, 1 h p.i. blocked, co-injection of 0.5 mg BMS 470539, read-out: Biodistribution, Stomach): 0.19 ± 0.12 %ID/g | tissue uptake at 1 h ([1]; C57BL/6J, testes, with BMS 470539 (MC1R-specific inhibitor), 0.5 mg co-injected, 1 h p.i. blocked, co-injection of 0.5 mg BMS 470539, read-out: Biodistribution, Testes): 0.1 ± 0.02 %ID/g | tissue uptake at 1 h ([1]; C57BL/6J, thyroid, with BMS 470539 (MC1R-specific inhibitor), 0.5 mg co-injected, 1 h p.i. blocked, co-injection of 0.5 mg BMS 470539, read-out: Biodistribution, Thyroid): 0.13 ± 0.05 %ID/g | tissue uptake at 1 h ([1]; C57BL/6J, whole blood, with BMS 470539 (MC1R-specific inhibitor), 0.5 mg co-injected, 1 h p.i. blocked, co-injection of 0.5 mg BMS 470539, read-out: Biodistribution, Blood): 0.27 ± 0.04 %ID/g | tissue uptake at 1 h ([1]; adrenal glands, 1 h p.i. unblocked, C57BL/6J mice, B16F10 melanoma, read-out: Biodistribution, Adrenal glands): 0.71 ± 0.67 %ID/g | tissue uptake at 2 h ([1]; adrenal glands, C57BL/6J mice, B16F10 melanoma, read-out: Biodistribution, Adrenal glands): 0.33 ± 0.19 %ID/g | tissue uptake at 1 h ([1]; bone, 1 h p.i. unblocked, C57BL/6J mice, B16F10 melanoma, read-out: Biodistribution, Bone): 0.32 ± 0.16 %ID/g | tissue uptake at 2 h ([1]; bone, C57BL/6J mice, B16F10 melanoma, read-out: Biodistribution, Bone): 0.1 ± 0.03 %ID/g | tissue uptake at 1 h ([1]; brain, 1 h p.i. unblocked, C57BL/6J mice, B16F10 melanoma, read-out: Biodistribution, Brain): 0.05 ± 0.04 %ID/g | tissue uptake at 2 h ([1]; brain, C57BL/6J mice, B16F10 melanoma, read-out: Biodistribution, Brain): 0.01 %ID/g | tissue uptake at 1 h ([1]; fat, 1 h p.i. unblocked, C57BL/6J mice, B16F10 melanoma, read-out: Biodistribution, Fat): 0.09 ± 0.04 %ID/g | tissue uptake at 2 h ([1]; fat, C57BL/6J mice, B16F10 melanoma, read-out: Biodistribution, Fat): 0.02 ± 0.01 %ID/g | tissue uptake at 1 h ([1]; heart, 1 h p.i. unblocked, C57BL/6J mice, B16F10 melanoma, read-out: Biodistribution, Heart): 0.26 ± 0.07 %ID/g | tissue uptake at 2 h ([1]; heart, C57BL/6J mice, B16F10 melanoma, read-out: Biodistribution, Heart): 0.08 ± 0.01 %ID/g | tissue uptake at 1 h ([1]; intestine, 1 h p.i. unblocked, C57BL/6J mice, B16F10 melanoma, read-out: Biodistribution, Intestine): 0.37 ± 0.11 %ID/g | tissue uptake at 2 h ([1]; intestine, C57BL/6J mice, B16F10 melanoma, read-out: Biodistribution, Intestine): 0.53 ± 0.38 %ID/g | tissue uptake at 1 h ([1]; kidneys, 1 h p.i. unblocked, C57BL/6J mice, B16F10 melanoma, read-out: Biodistribution, Kidneys): 5.98 ± 1.24 %ID/g | tissue uptake at 2 h ([1]; kidneys, C57BL/6J mice, B16F10 melanoma, read-out: Biodistribution, Kidneys): 4.42 ± 0.55 %ID/g | tissue uptake at 1 h ([1]; liver, 1 h p.i. unblocked, C57BL/6J mice, B16F10 melanoma, read-out: Biodistribution, Liver): 0.54 ± 0.07 %ID/g | tissue uptake at 2 h ([1]; liver, C57BL/6J mice, B16F10 melanoma, read-out: Biodistribution, Liver): 0.44 ± 0.08 %ID/g | tissue uptake at 1 h ([1]; lungs, 1 h p.i. unblocked, C57BL/6J mice, B16F10 melanoma, read-out: Biodistribution, Lungs): 0.74 ± 0.14 %ID/g | tissue uptake at 2 h ([1]; lungs, C57BL/6J mice, B16F10 melanoma, read-out: Biodistribution, Lungs): 0.31 ± 0.05 %ID/g | tissue uptake at 1 h ([1]; muscle, 1 h p.i. unblocked, C57BL/6J mice, B16F10 melanoma, read-out: Biodistribution, Muscle): 0.17 ± 0.05 %ID/g | tissue uptake at 2 h ([1]; muscle, C57BL/6J mice, B16F10 melanoma, read-out: Biodistribution, Muscle): 0.04 %ID/g | tissue uptake at 1 h ([1]; pancreas, 1 h p.i. unblocked, C57BL/6J mice, B16F10 melanoma, read-out: Biodistribution, Pancreas): 0.17 ± 0.04 %ID/g | tissue uptake at 2 h ([1]; pancreas, C57BL/6J mice, B16F10 melanoma, read-out: Biodistribution, Pancreas): 0.07 ± 0.01 %ID/g | tissue uptake at 1 h ([1]; seminal glands, 1 h p.i. unblocked, C57BL/6J mice, B16F10 melanoma, read-out: Biodistribution, Seminal glands): 0.11 ± 0.05 %ID/g | tissue uptake at 2 h ([1]; seminal glands, C57BL/6J mice, B16F10 melanoma, read-out: Biodistribution, Seminal glands): 0.04 ± 0.01 %ID/g | tissue uptake at 1 h ([1]; spleen, 1 h p.i. unblocked, C57BL/6J mice, B16F10 melanoma, read-out: Biodistribution, Spleen): 0.35 ± 0.07 %ID/g | tissue uptake at 2 h ([1]; spleen, C57BL/6J mice, B16F10 melanoma, read-out: Biodistribution, Spleen): 0.19 ± 0.03 %ID/g | tissue uptake at 1 h ([1]; stomach, 1 h p.i. unblocked, C57BL/6J mice, B16F10 melanoma, read-out: Biodistribution, Stomach): 0.26 ± 0.15 %ID/g | tissue uptake at 2 h ([1]; stomach, C57BL/6J mice, B16F10 melanoma, read-out: Biodistribution, Stomach): 0.2 ± 0.16 %ID/g | tissue uptake at 1 h ([1]; testes, 1 h p.i. unblocked, C57BL/6J mice, B16F10 melanoma, read-out: Biodistribution, Testes): 0.21 ± 0.06 %ID/g | tissue uptake at 2 h ([1]; testes, C57BL/6J mice, B16F10 melanoma, read-out: Biodistribution, Testes): 0.07 ± 0.01 %ID/g | tissue uptake at 1 h ([1]; thyroid, 1 h p.i. unblocked, C57BL/6J mice, B16F10 melanoma, read-out: Biodistribution, Thyroid): 0.31 ± 0.08 %ID/g | tissue uptake at 2 h ([1]; thyroid, C57BL/6J mice, B16F10 melanoma, read-out: Biodistribution, Thyroid): 0.16 ± 0.03 %ID/g | tissue uptake at 1 h ([1]; whole blood, 1 h p.i. unblocked, C57BL/6J mice, B16F10 melanoma, read-out: Biodistribution, Blood): 0.7 ± 0.15 %ID/g | tissue uptake at 2 h ([1]; whole blood, C57BL/6J mice, B16F10 melanoma, read-out: Biodistribution, Blood): 0.19 ± 0.01 %ID/g
Compound: CCCC[C@H](NC(=O)CN1CCC(NC(=O)CN2CCN(CC(=O)O)CCN(CC(=O)O)CCN(CC(=O)O)CC2)CC1)C(=O)N[C@H]1CC(=O)NCCCC[C@@H](C(N)=O)N(C)C(=O)[C@H](Cc2c[nH]c3ccccc23)N(C)C(=O)[C@H](CCCNC(=N)N)N(C)C(=O)[C@@H](Cc2ccccc2)NC(=O)[C@H](Cc2c[nH]cn2)N(C)C1=O [^68Ga-labeled CCZ01099, metal not drawn]
